We go through three molecules from US6713633B1, “Compounds capable of cleaving double-stranded DNA and method of utilization of the same” (Japan Science and Technology Corporation, priority 1999, dated 2004).

The structures appear in SMILES notation.

Test [1] concerns 5′-end texas red-modified 450 bp DNA fragments pUC18 F780*-1229 and pUC18 R1459*-1908. Briefly: Alkylation of 450 bp DNA fragments (thermally induced strand cleavage, high-resolution gel electrophoresis). The format is biochemical. The source says: Reactivities of the thus synthesized PyPyLDu86 and ImPyLDu86 with DNA were investigated.
The left electrophoresis pattern is a result of the upper strand of the double-strand DNA, and the right electrophoresis pattern is a result of the lower strand of the double-strand DNA. […] No compounds have been known to occur such the cleavage, and in this sense, the compound of the present invention can be said as an artificial restriction enzyme.
(1) Preparation of 5′-texas red-end-modified 450 bp DNA fragment
The 5′-end texas red-modified 450 bp DNA fragments pUC18 F780*-1229 and pUC18 R1459*-1908 (these are complementary) were prepared by the PCR method using 5′-end texas red-modified 18mers as primers and purified by filtration using Suprec-02. The concentration was determined by ethidium bromide staining. The asterisk (*) indicates texas red modification site, and numerals indicates nucleotide numbering from the replication origin.
(2) High-resolution gel electrophoresis
A standard reaction mixture containing 5′-end texas red-labeled DNA fragment 60 nM, DMF 5% (v/v) and various concentrations of drugs in total 10 μl of sodium phosphate buffer (pH 7.0) 12.5 mM was added into microcentrifugal tube (Eppendorf tube) and allowed to stand at room temperature for overnight. Calf thymus DNA (5 mM, 1 μl) was added thereto and heated at 90° C. for 5 minutes. DNA was collected by ethanol precipitation. […]

The subject of another test is HeLaS3 cells. Briefly: Growth Inhibitory Test on HeLaS3 Cells. The format is cell-based. The following applies: Homo sapiens, HeLa S3, 72 hours incubation, cell counts. As to the method: Cytotoxic activity of the compound of the present invention based on the properties described hereinbefore was examined. Cytotoxic activities of PyPyLDu86 and ImPyLDu86 of the present invention and known anticancer agent duocarmycin on HeLaS3 cells (uterocervical squamous cell carcinoma cells) were tested.
Suspension 0.75 ml of HeLaS3 cells, 2.67×10^4 cells/ml, in MEM medium containing 10% fetal bovine serum and 2 mM glutamine, was dispensed into each well in 24 cell culture plate. After incubation in the CO2-incubator at 37° C. for overnight, 0.25 ml portions of each test compound shown in Table 1, which was appropriately diluted with medium, was added into each well.
After cells were incubated for 72 hours in the CO2-incubator, the culture supernatant was removed, and cells were dispersed using trypsin-ethylenediaminetetraacetic acid (EDTA) and collected. Cell counts were counted by cell counter, and cell counts without treatment and cell counts treated with known concentration of test compound were compared to calculate the concentration of test compound which inhibits 50% of cell growth (IC50).

For `COC(=O)c1c(C)[nH]c2c1C13CC1CN(C(=O)/C=C/c1cc(NC(=O)c4nc(NC(C)=O)cn4C)cn1C)C3=CC2=O` (centres unmarked) [ImPyLDu86], in test [1] (double-strand DNA cleavage, calculated by an amount of used ImPyLDu86), the efficiency of cleavage was ~70%. Moreover, in test [1] (upper and lower strand, thermally induced strand cleavage, from the lower concentration), the “cleavage of the double-strand DNA (sites)” value was “mainly cleaved at the site 1 and the site 2 of the two strands”. For the same molecule, the IC50 (in general, the midpoint of a concentration-inhibition curve) with HeLaS3 cells was 0.7 nM. As to `COC(=O)c1cc2c([nH]1)C(=O)C=C1N(C(=O)c3cc4cc(OC)c(OC)c(OC)c4[nH]3)C[C@H]3C[C@]123` [Duocaraycin, duocarmycin, reference compound], inhibition in the test with HeLaS3 cells was half-maximal at 4.7 nM (IC50). `COC(=O)c1c(C)[nH]c2c1C13CC1CN(C(=O)/C=C/c1cc(NC(=O)c4cc(NC(C)=O)cn4C)cn1C)C3=CC2=O` (centres unmarked) [PyPyLDu86]: the half-maximal inhibitory concentration (IC50) with HeLaS3 cells worked out at 1.5 nM.
